According to patent US10993983B2, “Cyclic peptide epitopes and small-molecule mimics for inducing autophagy” (TRUSTEES OF TUFTS COLLEGE, priority 2016, dated 2021):
Marks after values point to notes of the source that are not given here. Bridges are numbered along the chain shown (N, C = ends). Where no end group is shown, it is not given here. [ ]: non-standard residue; d: D form. MP = not defined here

Tested on: p62
Assay: p62 degradation assay (p62/actin immunoblot);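 as to Activity (μM) 10, p62/actin assay activity: HeLa cells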;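 as to Activity (μM) 100, p62/actin assay activity: HeLa cells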;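 as to Activity (μM) 30, p62/actin assay activity: HeLa cells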;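 as to Activity (μM) 50, p62/actin assay activity: HeLa cells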
Assay type: cell-based
Parameters: key: −: activity not reported; 0: decreased vs. WT; +: similar to WT; ++: modest increase vs. WT; +++: significant increase vs. WT
Conditions: 10 μM; Table 8, control compound T25; first symbol
Protocol: (§1) Cells were treated with peptide in OPTI-MEM (Thermo Scientific) acidified with 0.15% (v/v) 6N HCl for 3 hour. Cells were rinsed with Dulbecco's phosphate buffered saline (PBS) and lysed in lysis buffer (20 mM HEPES, 150 mM NaCl, 1 mM EDTA, 1% Triton X-100, protease inhibitor cocktail (Roche) on ice for 1 hour. Cell lysates were centrifuged at 16,000 g for 10 min at 4° C. and analyzed by SDS-PAGE and transferred to PVDF membranes. The membranes were blocked 5% non-fat dry milk (NFDM) in PBST (PBS+0.05% Tween-20) for 1 hour, then incubated overnight at 4° C. with primary antibody in 5% NFDM in PBST. The blots were washed with PBST and incubated with HRP-conjugated secondary antibodies diluted in 5% NFDM in PBST for 1 hour at room temperature. Membranes were washed with PBST and visualized with SuperSignal West Pico Chemiluminescent Substrate (Thermo Scientific). Semi-quantitative results were obtained by noting the lowest concentration at which both p62 degradation and LC3-I to LC3-II conversion were observed.
(§2) Compounds 1-10 were evaluated using the assays described in Examples 4 and 5. Activity for each compound was measured in the p62 degradation assay and the LC3 marker assay as described herein. The activity at each concentration of peptide is given as, for example, (0/+) where 0 would be the p62/actin assay activity and + would be the LC3 assay activity.

With VCNACFHIWH [Compound 54] as the sequence, how does the “Activity (μM) 10, p62/actin assay activity” value read?
The value was “+”.

How did the “Activity (μM) 10, p62/actin assay activity” value turn out when VCNACFHIWH [Compound 55] was run?
The value was 0/0.

Same assay, conditions: 30 μM; Table 7, control compound T25; first symbol

With VCNATCHIWH [Compound 28] as the sequence, how does the “Activity (μM) 30, p62/actin assay activity” value read?
The value was 0/0.

How did the “Activity (μM) 30, p62/actin assay activity” value turn out when VCNATCHIWH [Compound 32] was run?
Its value is “++”.

Same assay, conditions: 30 μM; Table 8, control compound T25; first symbol

How did the “Activity (μM) 30, p62/actin assay activity” value turn out when VCNACFHIWH [Compound 74] was run?
The value was 0.

For VCNACFHIWH [Compound 73], which “Activity (μM) 30, p62/actin assay activity” value is on record?
The value was 0.

For VCNACFHIWH [Compound 54], which “Activity (μM) 30, p62/actin assay activity” value is on record?
The value was “++”.

With VCNACFHIWH [Compound 55] as the sequence, how does the “Activity (μM) 30, p62/actin assay activity” value read?
The value was “++”.

For VCNACFHIWH [Compound 69], which “Activity (μM) 30, p62/actin assay activity” value is on record?
The value was 0/0.

Same assay, conditions: 50 μM; Table 7, control compound T25; first symbol

For VCNATCHIWH [Compound 28], which “Activity (μM) 50, p62/actin assay activity” value is on record?
Its value is 0/0.

For VCNATCHIWH [Compound 32], which “Activity (μM) 50, p62/actin assay activity” value is on record?
The value was “++”.

Same assay, conditions: 50 μM; Table 8, control compound T25; first symbol

“VCNATCRIWR (V[dC]NAT[dC]RIWR; not fully specified (C-terminus); cysteine pairing not given here) [Compound 42]” was tested. Which “Activity (μM) 50, p62/actin assay activity” value did it give?
Its value is 0/0.

Which “Activity (μM) 50, p62/actin assay activity” value does the source give for VCNACFHIWH [Compound 74] here?
The value was “+++/+++”.

For VWNATCHIWC [Compound 65], which “Activity (μM) 50, p62/actin assay activity” value is on record?
Its value is 0/0.

How did the “Activity (μM) 50, p62/actin assay activity” value turn out when “VCNATCHIWR (V[dC]NAT[dC]HIWR; cysteine pairing not given here) [Compound 38]” was run?
Its value is 0/0.

How did the “Activity (μM) 50, p62/actin assay activity” value turn out when VCNACFHIWH [Compound 73] was run?
Its value is “+”.

With VCNACFHIWH [Compound 54] as the sequence, how does the “Activity (μM) 50, p62/actin assay activity” value read?
The value was “++”.

Which “Activity (μM) 50, p62/actin assay activity” value does the source give for “VCNATCHIRIWH (H-V[dC]NAT[dC]HIRIWH; linker 2-6 via MP (inferred); not fully specified (C-terminus); reading uncertain) [Compound 37]” here?
The value was 0/0.

VCNATCHIWH [Compound 44] was tested. Which “Activity (μM) 50, p62/actin assay activity” value did it give?
Its value is 0/0.

How did the “Activity (μM) 50, p62/actin assay activity” value turn out when VCNACFHIWH [Compound 55] was run?
The value was “+++”.

With VCNACFHIWH [Compound 69] as the sequence, how does the “Activity (μM) 50, p62/actin assay activity” value read?
The value was “++”.

Same assay, conditions: 100 μM; Table 7, control compound T25; first symbol

VCNATCHIWH [Compound 28] was tested. Which “Activity (μM) 100, p62/actin assay activity” value did it give?
Its value is “+++”.

With VCNATCHIWH [Compound 32] as the sequence, how does the “Activity (μM) 100, p62/actin assay activity” value read?
The value was “++”.

Same assay, conditions: 100 μM; Table 8, control compound T25; first symbol

How did the “Activity (μM) 100, p62/actin assay activity” value turn out when “VCNATCRIWR (V[dC]NAT[dC]RIWR; not fully specified (C-terminus); cysteine pairing not given here) [Compound 42]” was run?
The value was 0/0.

Which “Activity (μM) 100, p62/actin assay activity” value does the source give for “VCNATCHIWR (V[dC]NAT[dC]HIWR; cysteine pairing not given here) [Compound 38]” here?
Its value is 0/0.

How did the “Activity (μM) 100, p62/actin assay activity” value turn out when “VCNATCHIRIWH (H-V[dC]NAT[dC]HIRIWH; linker 2-6 via MP (inferred); not fully specified (C-terminus); reading uncertain) [Compound 37]” was run?
Its value is 0/0.

For VCNATCHIWH [Compound 44], which “Activity (μM) 100, p62/actin assay activity” value is on record?
The value was 0/0.

Same assay, conditions: Table 8; 10 μM marked * (footnote: data taken at 20 instead of 30 μM); first symbol

With VCNACFHIWH [Compound 74] as the sequence, how does the “Activity (μM) 10, starred cell, p62/actin assay activity” value read?
The value was 0.

With VCNACFHIWH [Compound 73] as the sequence, how does the “Activity (μM) 10, starred cell, p62/actin assay activity” value read?
The value was 0/0*.

VCNACFHIWH [Compound 69] was tested. Which “Activity (μM) 10, starred cell, p62/actin assay activity” value did it give?
Its value is 0/0*.

Tested on: LC3
Assay: LC3 marker assay (LC3-I to LC3-II conversion immunoblot);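 as to Activity (μM) 10, LC3 assay activity: HeLa cells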;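 as to Activity (μM) 100, LC3 assay activity: HeLa cells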;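 as to Activity (μM) 30, LC3 assay activity: HeLa cells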;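 as to Activity (μM) 50, LC3 assay activity: HeLa cells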
Assay type: cell-based
Parameters: key: −: activity not reported; 0: decreased vs. WT; +: similar to WT; ++: modest increase vs. WT; +++: significant increase vs. WT
Conditions: 10 μM; Table 8, control compound T25; second symbol
Protocol: as §1, §2

How did the “Activity (μM) 10, LC3 assay activity” value turn out when VCNACFHIWH [Compound 54] was run?
The value was 0.

VCNACFHIWH [Compound 55] was tested. Which “Activity (μM) 10, LC3 assay activity” value did it give?
Its value is 0/0.

Same assay, conditions: 30 μM; Table 7, control compound T25; second symbol

How did the “Activity (μM) 30, LC3 assay activity” value turn out when VCNATCHIWH [Compound 28] was run?
Its value is 0/0.

VCNATCHIWH [Compound 32] was tested. Which “Activity (μM) 30, LC3 assay activity” value did it give?
Its value is 0.

Same assay, conditions: 30 μM; Table 8, control compound T25; second symbol

For VCNACFHIWH [Compound 74], which “Activity (μM) 30, LC3 assay activity” value is on record?
Its value is “++”.

How did the “Activity (μM) 30, LC3 assay activity” value turn out when VCNACFHIWH [Compound 73] was run?
The value was “+”.

VCNACFHIWH [Compound 54] was tested. Which “Activity (μM) 30, LC3 assay activity” value did it give?
The value was 0.

Which “Activity (μM) 30, LC3 assay activity” value does the source give for VCNACFHIWH [Compound 55] here?
The value was 0.

Which “Activity (μM) 30, LC3 assay activity” value does the source give for VCNACFHIWH [Compound 69] here?
Its value is 0/0.

Same assay, conditions: 50 μM; Table 7, control compound T25; second symbol

With VCNATCHIWH [Compound 28] as the sequence, how does the “Activity (μM) 50, LC3 assay activity” value read?
The value was 0/0.

Which “Activity (μM) 50, LC3 assay activity” value does the source give for VCNATCHIWH [Compound 32] here?
Its value is 0.

Same assay, conditions: 50 μM; Table 8, control compound T25; second symbol

How did the “Activity (μM) 50, LC3 assay activity” value turn out when “VCNATCRIWR (V[dC]NAT[dC]RIWR; not fully specified (C-terminus); cysteine pairing not given here) [Compound 42]” was run?
Its value is 0/0.

With VCNACFHIWH [Compound 74] as the sequence, how does the “Activity (μM) 50, LC3 assay activity” value read?
The value was “+++/+++”.

Which “Activity (μM) 50, LC3 assay activity” value does the source give for VWNATCHIWC [Compound 65] here?
The value was 0/0.

“VCNATCHIWR (V[dC]NAT[dC]HIWR; cysteine pairing not given here) [Compound 38]” was tested. Which “Activity (μM) 50, LC3 assay activity” value did it give?
The value was 0/0.

Which “Activity (μM) 50, LC3 assay activity” value does the source give for VCNACFHIWH [Compound 73] here?
Its value is “+++”.

How did the “Activity (μM) 50, LC3 assay activity” value turn out when VCNACFHIWH [Compound 54] was run?
The value was 0.

Which “Activity (μM) 50, LC3 assay activity” value does the source give for “VCNATCHIRIWH (H-V[dC]NAT[dC]HIRIWH; linker 2-6 via MP (inferred); not fully specified (C-terminus); reading uncertain) [Compound 37]” here?
Its value is 0/0.

For VCNATCHIWH [Compound 44], which “Activity (μM) 50, LC3 assay activity” value is on record?
Its value is 0/0.

For VCNACFHIWH [Compound 55], which “Activity (μM) 50, LC3 assay activity” value is on record?
The value was 0.

Which “Activity (μM) 50, LC3 assay activity” value does the source give for VCNACFHIWH [Compound 69] here?
The value was “+++”.

Same assay, conditions: 100 μM; Table 7, control compound T25; second symbol

With VCNATCHIWH [Compound 28] as the sequence, how does the “Activity (μM) 100, LC3 assay activity” value read?
Its value is 0.

How did the “Activity (μM) 100, LC3 assay activity” value turn out when VCNATCHIWH [Compound 32] was run?
The value was 0.

Same assay, conditions: 100 μM; Table 8, control compound T25; second symbol

For “VCNATCRIWR (V[dC]NAT[dC]RIWR; not fully specified (C-terminus); cysteine pairing not given here) [Compound 42]”, which “Activity (μM) 100, LC3 assay activity” value is on record?
The value was 0/0.

“VCNATCHIWR (V[dC]NAT[dC]HIWR; cysteine pairing not given here) [Compound 38]” was tested. Which “Activity (μM) 100, LC3 assay activity” value did it give?
Its value is 0/0.

For “VCNATCHIRIWH (H-V[dC]NAT[dC]HIRIWH; linker 2-6 via MP (inferred); not fully specified (C-terminus); reading uncertain) [Compound 37]”, which “Activity (μM) 100, LC3 assay activity” value is on record?
The value was 0/0.

How did the “Activity (μM) 100, LC3 assay activity” value turn out when VCNATCHIWH [Compound 44] was run?
The value was 0/0.

Same assay, conditions: Table 8; 10 μM marked * (footnote: data taken at 20 instead of 30 μM); second symbol

VCNACFHIWH [Compound 74] was tested. Which “Activity (μM) 10, starred cell, LC3 assay activity” value did it give?
Its value is “+”.

With VCNACFHIWH [Compound 73] as the sequence, how does the “Activity (μM) 10, starred cell, LC3 assay activity” value read?
The value was 0/0*.

With VCNACFHIWH [Compound 69] as the sequence, how does the “Activity (μM) 10, starred cell, LC3 assay activity” value read?
The value was 0/0*.
